Laboratory results as given in the supplement of paper PMC10307832.

compound: C1=CC2=C(C=C(C(=C2N=C1)O)N=NC3=CC4=C(C=C3)C=C(C=C4)S(=O)(=O)O)S(=O)(=O)O + COc1cccc2cc(-c3nc([C@H]4CC[C@H](C(=O)O)CC4)n4ncnc(N)c34)[nH]c12 [OSI-027] (partner 0.5 µM); assay: relative viability (nuclei count vs DMSO), 5 days (fraction); higher = more cells survive; conditions: first compound 8 µM
Summary of the method: (§1)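 Medians of duplicate plates are given as relative viability. That measure is the nuclei count in treated wells divided by the count in vehicle wells. Counts were taken on 4× images of lung cancer cell lines in 1536-well plates, 5 days after pin-tool dosing the day after seeding with one drug alone or a fixed anchor-drug dose plus five library-drug doses (not always all listed) in √10 steps.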

Cell Line	relative viability
NCI-H1755	0.703
NCI-H2023	0.552
HCC-15	0.65
NCI-H1793	0.314
PC-14	0.837
EKVX	0.539
LC-2-ad	0.723
NCI-H1944	0.425
NCI-H1975	0.784

compound: O=C(NC1CCNCC1)c1n[nH]cc1NC(=O)c1c(Cl)cccc1Cl [AT-7519] + N=C(N)NC(=N)NCCc1ccccc1 [Phenformin] (partner 250 µM); assay: as above; conditions: first compound 0.01 µM
Summary of the method: as §1

Cell Line	relative viability
NCI-H322M	0.796
LCLC-97TM1	0.476
NCI-H2009	0.521
A-427	0.233
NCI-H441	0.847
NCI-H661	0.277
NCI-H1734	0.385
NCI-H460	0.636
NCI-H2347	0.281
SK-LU-1	0.499
NCI-H1395	0.463
201T	0.461
NCI-H1915	0.365
HCC-827	0.457
LXF-289	0.574
NCI-H23	0.632
NCI-H647	0.619

Cell Line	relative viability
CAL-12T	0.531
NCI-H1651	0.298
EPLC-272H	0.272
NCI-H2228	0.298
NCI-H1792	0.208
NCI-H1355	0.455
NCI-H3122	0.405
NCI-H1437	0.322
NCI-H1755	0.638
NCI-H2023	0.389
HCC-15	0.468
NCI-H1793	0.354
PC-14	0.519
EKVX	0.246
LC-2-ad	0.522
NCI-H1944	0.234
NCI-H1975	0.382

same assay, conditions: first compound 0.03162 µM

Cell Line	relative viability
NCI-H322M	0.784
LCLC-97TM1	0.456
NCI-H2009	0.451
A-427	0.315
NCI-H441	0.955
NCI-H661	0.27
NCI-H1734	0.342
NCI-H460	0.31
NCI-H2347	0.388
SK-LU-1	0.444
NCI-H1395	0.518
201T	0.441
NCI-H1915	0.384
HCC-827	0.437
LXF-289	0.524
NCI-H23	0.794
NCI-H647	0.529

Cell Line	relative viability
CAL-12T	0.579
NCI-H1651	0.344
EPLC-272H	0.295
NCI-H2228	0.305
NCI-H1792	0.22
NCI-H1355	0.461
NCI-H3122	0.37
NCI-H1437	0.328
NCI-H1755	0.633
NCI-H2023	0.435
HCC-15	0.422
NCI-H1793	0.457
PC-14	0.566
EKVX	0.242
LC-2-ad	0.573
NCI-H1944	0.207
NCI-H1975	0.408

same assay, conditions: first compound 0.3162 µM

Cell Line	relative viability
NCI-H322M	0.612
LCLC-97TM1	0.42
NCI-H2009	0.472
A-427	0.238
NCI-H441	0.775
NCI-H661	0.249
NCI-H1734	0.323
NCI-H460	0.0379
NCI-H2347	0.582
SK-LU-1	0.322
NCI-H1395	0.443
201T	0.486
NCI-H1915	0.345
HCC-827	0.341
LXF-289	0.489
NCI-H23	0.779
NCI-H647	0.335

Cell Line	relative viability
CAL-12T	0.272
NCI-H1651	0.36
EPLC-272H	0.307
NCI-H2228	0.193
NCI-H1792	0.315
NCI-H1355	0.371
NCI-H3122	0.325
NCI-H1437	0.292
NCI-H1755	0.608
NCI-H2023	0.321
HCC-15	0.401
NCI-H1793	0.434
PC-14	0.424
EKVX	0.259
LC-2-ad	0.498
NCI-H1944	0.197
NCI-H1975	0.274

same assay, conditions: first compound 1 µM

Cell Line	relative viability
NCI-H322M	0.448
LCLC-97TM1	0.289
NCI-H2009	0.276
A-427	0.222
NCI-H441	0.515
NCI-H661	0.189
NCI-H1734	0.175
NCI-H460	0.0177
NCI-H2347	0.185
SK-LU-1	0.231
NCI-H1395	0.407
201T	0.473
NCI-H1915	0.376
HCC-827	0.246
LXF-289	0.53
NCI-H23	0.52
NCI-H647	0.281

Cell Line	relative viability
CAL-12T	0.188
NCI-H1651	0.325
EPLC-272H	0.198
NCI-H2228	0.165
NCI-H1792	0.163
NCI-H1355	0.458
NCI-H3122	0.13
NCI-H1437	0.194
NCI-H1755	0.546
NCI-H2023	0.0704
HCC-15	0.241
NCI-H1793	0.387
PC-14	0.314
EKVX	0.23
LC-2-ad	0.413
NCI-H1944	0.182
NCI-H1975	0.155

compound: C1=CC2=C(C=C(C(=C2N=C1)O)N=NC3=CC4=C(C=C3)C=C(C=C4)S(=O)(=O)O)S(=O)(=O)O + CC(=O)c1c(C)c2cnc(Nc3ccc(N4CCNCC4)cn3)nc2n(C2CCCC2)c1=O [Palbociclib] (partner 0.5 µM); assay: as above; conditions: first compound 0.08 µM
Summary of the method: as §1

Cell Line	relative viability
NCI-H322M	0.473
LCLC-97TM1	0.236
NCI-H2009	0.221
A-427	0.525
NCI-H441	0.22
NCI-H661	0.4
NCI-H1734	0.367
NCI-H460	0.174
NCI-H2347	0.459
SK-LU-1	0.456
NCI-H1395	0.692
201T	0.385
NCI-H1915	0.415
HCC-827	0.537
LXF-289	0.672
NCI-H23	0.538
